# Reference: patent US20260060947A1 (INSTITUT PASTEUR DE MONTEVIDEO, priority 2019, published 2026)
# Entries after “also recorded” stand apart in the source; their conditions may differ.
# How the values were obtained:
# NF-κB-p65 [1] = experiment: LPS-induced NF-κB-p65 nuclear translocation in SOD1^G93A primary microglia; type: cell-based, rat; settings: BANA 10-30 μM before LPS
# Experimental: FIG. 8D: Confocal images show CD11b-positive SOD1^G93A primary microglia (grey) treated with BANA, BA or vehicle, before LPS stimulation. […] Nuclear NF-κB-p65 colocalizing with DAPI nuclear staining is denoted in yellow.
# Nuclear NF-κB-p65 colocalizing with DAPI nuclear staining is denoted in yellow. […] Scale bar=20 μm. […] 2 replicates of 3 independent experiments.
# The effects of BANA on LPS- or TNFα-induced NF-κB activation were also assayed in cell cultures of BV2 microglial cell line and primary adult microglia isolated from symptomatic SOD1^G93A rats, and HT-29 NF-κB reporter cell line, respectively.
# NF-κB-p65 [2] = experiment: LPS-induced NF-κB-p65 nuclear translocation in BV2 cells (immunocytochemistry); type: cell-based, murine; settings: BANA 10, 20, 30 μM, BA 30 μM or DMF for 3 hrs before LPS 100 ng/ml
# Experimental: The effect of BANA on nuclear translocation of NF-κB was studied by immunocytochemistry using murine microglia cell line BV2.
# Cells were then treated with BANA (10, 20 and 30 μM) or B.A (30 μM) for 3 hrs. After treatment, cells were stimulated with LPS (100 ng/ml) for 30 minutes. Then, cells were washed and fixed with PFA 4% for 20 minutes at 4° C. and washed with PBS. Immunocytochemistry was performed as follows: cells were permeabilized using 0.5% Triton in PBS for 15 minutes, and then blocked using 5% of BSA for 1 h at room temperature. Rabbit anti-NF-κB-p65 (ab16502, 1/200) and mouse anti-CD11b (BD550219, 1/100) were incubated overnight at 4° C. After that, primary antibodies were removed, washed with PBS 3 times for 10 minutes, and Alexa-fluor-conjugated goat anti-rabbit or goat anti-mouse antibodies (1:1000) were incubated for 2 h at room temperature. After secondary antibodies were removed, cells were covered in glycerol mounting medium with 1/2000 DAPI staining. Cells were analyzed by confocal microscopy using a confocal ZEISS LSM 800. NF-κB-p65+ nuclei were counted and ratio of DAPI to NF-κB-p65 labeling was compared among groups. Data were analyzed using analyzing tools of ImageJ and GraphPad Prism 7 software.
# SOD1^G93A rats = experiment: Post-paralysis survival trial in SOD1^G93A rats; type: in vivo, rat
# Experimental: Only female transgenic rats showing weakness and gait alterations in the […] as the first clinical sign were selected for BANA treatment studies. Rats were divided randomly into BANA or vehicle-treated groups. BANA was freshly prepared in buffer phosphate (PB), and administrated daily at a dose of 100 mg/kg using a curved stainless steel gavage needle with 3-mm ball tip. Rats were treated from day-1 post-paralysis for 15 days or until end-stage when they were euthanized.
# All rats were weighed and evaluated for motor activity daily. Disease onset was determined for each animal when pronounced muscle atrophy accompanied by abnormal gait, typically expressed as subtle limping or dragging of one hind limb. End-stage was defined by a lack of righting reflexes or the inability to reach food and water.
# Survival curves were compared by Kaplan-Meier analysis with the Log-rank test using GraphPad Prism 7 software.
# To test whether systemic treatment with BANA could prolong the survival of SOD1^G93A rats, a trial was conducted in which rats were orally treated with BANA (100 mg/kg/day) or vehicle, starting immediately after paralysis onset of one hind limb until the end-stage of the disease.
# IL-1β = IL-1β in peritoneum and plasma of LPS-injected mice (ELISA); type: in vivo; settings: 50 mg/kg IP 1 h before LPS 10 mg/kg, measured 3 h later, compared to vehicle and BA
# Experimental: BANA (50 mg/kg), BA (50 mg/kg) or vehicle, were intraperitoneally (IP) injected 1 h before LPS intraperitoneal administration (10 mg/kg). 3 h later, IL-1β levels were measured in the peritoneum and plasma by ELISA.
# In turn, BANA was able to reduce IL-1β concentration in plasma and peritoneum of mice intraperitoneally injected with LPS respect to controls (FIGS. 8A-1 and 8A-2). BANA (50 mg/kg), BA (50 mg/kg) or vehicle, were intraperitoneally (IP) injected 1 h before LPS intraperitoneal administration (10 mg/kg). 3 h later, IL-1β levels were measured in the peritoneum and plasma by ELISA. […] All data are expressed as mean±SEM; data were analyzed by Ordinary one-way ANOVA followed by Tukey's multiple comparisons test, ***p=0.0002 ****p<0,0001. n=3 animals per condition.
# [3] = LC50 in cell culture of HT-29; type: cell-based; settings: human, HT-29 cells; HT-29 cell culture
# NF-κB-p65 [4] = experiment: Nuclear NF-κB-p65 in perineuronal microglia of the spinal cord; type: in vivo, rat; settings: post-paralysis treatment for 15 days, 100 mg/kg/day
# Experimental: FIG. 9A: Scheme of the experimental design. SOD1^G93A female rats were treated with 100 mg/kg/day of BANA or vehicle immediately after the first signs of paralysis onset of one hindlimb and continue for 15 days. Immunohistological analysis of the lumbar spinal cord of non-transgenic and vehicle- and BANA-treated SOD1^G93A symptomatic rats were performed.
# FIG. 9C: Confocal images show NF-κB-p65 (green) and DAPI (red) expression in the ventral horn of the spinal cord of non-transgenic and symptomatic SOD1^G93A rats, treated with vehicle or BANA, in the surroundings of motor neurons (white dotted lines). Nuclei stained in yellow denote nuclear NF-κB-p65 and DAPI colocalization (white arrows). […] Data are expressed as mean±SEM; data were analyzed by the Kruskal-Wallis test followed by Dunn's multiple comparisons test, **p=0.0018, ***p=0.0003. n=4 animals per condition. Scale bar=20 μm.
# At least 4 rats were analyzed for each immunohistochemistry experiment. Three different conditions were studied as follows: 1) non-transgenic (NonTg) rats of 160-180 days; 2) transgenic SOD1^G93A rats of 195-210 days treated with vehicle (paralysis, 15 d-vehicle) and 3) transgenic SOD1^G93A rats of 195-210 days treated with 50 or 100 mg/kg/day of BANA during 15 days. After treatment animals were deeply anesthetized and transcardial perfusion was performed with paraformaldehyde 4% (v/v) in PBS pH=7.4. […]
# [5] = oral 100 mg/kg/day from paralysis onset until end-stage
compound,measurement,setting,value
"O=C(O)c1ccc(/C=C/[N+](=O)[O-])cc1 [BANA, (E)-4-(2-nitrovinyl) benzoic acid]",LPS-induced NF-κB-p65 nuclear translocation,NF-κB-p65 [1],inhibits; also recorded: potently prevented
same,LPS-induced NF-κB-p65 nuclear translocation,NF-κB-p65 [2],potently prevented; also recorded: inhibits
same,increase probability of survival compared with vehicle-treated rats,SOD1^G93A rats; [5],32%
same,mean survival time,SOD1^G93A rats; [5],evidence of a survival benefit
same,post-paralysis survival prolonged respect to vehicle,"SOD1^G93A rats; oral, starting after disease onset",32%
same,IL-1β concentration in plasma,IL-1β,significantly reduces
same,IL-1β concentration in the peritoneum,IL-1β,significantly reduces
same,CC50,[3],80 µM
same,perineuronal microglia bearing NF-κB-p65-positive nuclei,NF-κB-p65 [4],significant reduction
